Reference: patent US20090291048A1, “LEUKOCYTE-BINDING POLYPEPTIDES AND USES THEREOF” (Baker IDI Heart and Diabetes Institute Holdings Limited, priority 2005, published 2009)

Test system: GPIIb/IIIa (αIIbβ3, CD41/CD61), native or GFFKR-deleted, on CHO cells
Test: Flow cytometry cross-reactivity with GPIIb/IIIa-expressing CHO cells
Type: binding
Conditions: CHO cells with native (non-activated) or GFFKR-deleted (activated) GPIIb/IIIa
Method: Cross-reactivity with another fibrinogen binding integrin was assessed in flow cytometry using CHO cells expressing either a GFFKR-deleted and thereby activated GPIIb/IIIa or the native and thereby non-activated platelet integrin GPIIb/IIIa (details of cell generation have been described previously).^30,31 The expression of the activated conformation was determined by the binding of the activation-specific antibody Pac-1. MAN-1 binding was measured by an Alexa Fluor 488-conjugated anti-His-tag secondary antibody. […] Thus, no cross-reactivity to GPIIb/IIIa was seen. A typical result out of three experiments is shown.
Since one of the Mac-1 ligands, fibrinogen, also binds to the platelet integrin GPIIb/IIIa (αIIIbβ3, CD41/CD61) potential cross-reactivity of MAN-1 with this integrin was also evaluated. For this purpose, recombinant CHO cell lines were used, expressing native, non-activated and GFFKR-deleted, activated GPIIb/IIIa as described elsewhere (O'Toole et al J. Cell Biol. 1994; 124:1047-1059; Peter et al, J Exp Med. 1995; 181:315-326; Tadokoro et al Science. 2003; 302:103-106).

Chain of GPIIb/IIIa (αIIbβ3, CD41/CD61), native or GFFKR-deleted, on CHO cells (P08514 32-887 limits assumed, stated change not applied): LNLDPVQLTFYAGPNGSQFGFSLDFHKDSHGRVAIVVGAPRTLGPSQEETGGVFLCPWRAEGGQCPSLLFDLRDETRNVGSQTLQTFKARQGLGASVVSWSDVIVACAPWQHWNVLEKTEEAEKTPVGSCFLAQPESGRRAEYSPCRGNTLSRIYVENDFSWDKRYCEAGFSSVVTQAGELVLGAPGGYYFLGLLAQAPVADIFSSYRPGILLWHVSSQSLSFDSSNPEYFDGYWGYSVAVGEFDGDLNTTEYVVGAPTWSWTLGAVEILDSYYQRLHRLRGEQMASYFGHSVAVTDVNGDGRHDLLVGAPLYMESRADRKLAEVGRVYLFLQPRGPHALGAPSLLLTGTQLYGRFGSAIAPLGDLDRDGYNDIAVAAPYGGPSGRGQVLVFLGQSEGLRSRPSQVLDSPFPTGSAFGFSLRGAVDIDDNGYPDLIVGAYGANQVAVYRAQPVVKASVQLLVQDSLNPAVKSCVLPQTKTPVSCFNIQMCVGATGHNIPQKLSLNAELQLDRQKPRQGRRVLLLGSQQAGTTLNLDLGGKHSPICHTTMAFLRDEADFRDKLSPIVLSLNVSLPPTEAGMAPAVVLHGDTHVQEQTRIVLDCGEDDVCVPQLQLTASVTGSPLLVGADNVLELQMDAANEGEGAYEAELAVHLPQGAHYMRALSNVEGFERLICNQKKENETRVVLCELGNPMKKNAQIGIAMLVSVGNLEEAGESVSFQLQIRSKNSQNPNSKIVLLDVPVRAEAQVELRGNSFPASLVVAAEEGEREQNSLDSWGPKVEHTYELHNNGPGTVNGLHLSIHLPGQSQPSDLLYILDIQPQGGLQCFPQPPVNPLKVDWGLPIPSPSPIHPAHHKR
Chain of GPIIb/IIIa (αIIbβ3, CD41/CD61), native or GFFKR-deleted, on CHO cells (P08514 891-1019 limits assumed, stated change not applied): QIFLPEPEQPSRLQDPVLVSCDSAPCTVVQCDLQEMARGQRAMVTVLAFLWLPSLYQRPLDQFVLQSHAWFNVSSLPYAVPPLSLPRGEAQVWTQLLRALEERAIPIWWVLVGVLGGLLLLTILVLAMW
Chain of GPIIb/IIIa (αIIbβ3, CD41/CD61), native or GFFKR-deleted, on CHO cells (P05106 27-788, stated change not applied, further chain): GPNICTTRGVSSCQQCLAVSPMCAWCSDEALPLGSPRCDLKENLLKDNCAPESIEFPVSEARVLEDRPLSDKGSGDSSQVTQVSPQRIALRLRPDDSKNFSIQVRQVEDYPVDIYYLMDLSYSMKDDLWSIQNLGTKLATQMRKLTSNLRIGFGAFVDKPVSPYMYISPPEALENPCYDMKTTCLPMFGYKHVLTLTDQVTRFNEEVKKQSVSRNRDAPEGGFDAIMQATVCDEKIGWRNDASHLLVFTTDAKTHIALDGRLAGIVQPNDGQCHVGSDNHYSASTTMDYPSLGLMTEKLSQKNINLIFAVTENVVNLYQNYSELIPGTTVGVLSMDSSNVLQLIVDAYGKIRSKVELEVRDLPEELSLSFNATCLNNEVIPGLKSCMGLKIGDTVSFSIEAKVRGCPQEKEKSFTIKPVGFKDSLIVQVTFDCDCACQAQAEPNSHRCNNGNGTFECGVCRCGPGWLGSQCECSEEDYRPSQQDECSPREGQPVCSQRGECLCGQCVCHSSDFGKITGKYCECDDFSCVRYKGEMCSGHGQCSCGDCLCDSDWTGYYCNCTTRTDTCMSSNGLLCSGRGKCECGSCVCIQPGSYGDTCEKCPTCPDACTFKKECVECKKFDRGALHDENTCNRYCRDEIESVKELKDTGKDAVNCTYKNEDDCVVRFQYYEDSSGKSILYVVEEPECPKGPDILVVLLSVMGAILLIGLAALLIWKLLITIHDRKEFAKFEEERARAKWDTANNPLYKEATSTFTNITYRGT

In the case of Pac-1, the “Binding to GPIIb/IIIa” value is reported as “binds to the activated GPIIb/IIIa”.
